# Reference: ChEMBL document CHEMBL1201862, “PubChem BioAssay data set” (2004)
# Activity calls are given as the source filed them.
# Assays:
# [1] = blockers of HIV-1 ZM109 envelope-driven cell-cell fusion – HeLa effector, CEM target cells, luciferase, cherry-pick, dose response (AID 652058); format: functional, cell-based;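 also: luciferase signal from HIV-1 Env mediated cell-cell fusion of effector and target cells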
# [2] = HIV-1 AD8 envelope cell-cell fusion blockers – cherry-pick, dose response (AID 652062); format: functional, cell-based;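 also: luciferase signal from cell-cell fusion driven by HIV-1 clade B AD8 Env; potency is for inhibitors of fusion seen as a drop in luminescence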
# [3] = viability loss in CEM21 cells – cell-based, CellTiter-Glo luminescence, cherry-picked, cytotoxicity control for viral fusion inhibitor project, dose response (AID 652042); format: functional;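 also: potency for signal decrease meaning cytotoxicity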
# [4] = off-target signal loss in HeLa-CEM21 co-culture – HeLa F-luc CTL cells, cherry-picked, counter-screen for HIV-1 Env fusion inhibitor project, dose response (AID 652040); format: functional, cell-based;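 also: potency for signal decrease marking cytotoxic or nonspecific inhibition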
# [5] = blockers of HIV-1 envelope-mediated cell-cell fusion – cherry-pick, dose response (AID 652057); format: functional, cell-based
# [6] = HEK-293T viability loss after treatment – luminescence, T-cell screen hits, cytotoxicity control for TCR NF-kB inhibitor project, dose response (AID 489026); format: functional, cell-based;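 also: cells exposed to compound about 14 hours before the viability readout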
# BJ [7] = test: growth inhibition of engineered Ras-driven BJ cells – cell-based, alamar blue fluorescence, cherrypicked samples, dose response (AID 2631); format: functional; settings: Homo sapiens;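 also: confirmatory dose-response assay in RAS-dependent BJ fibroblasts engineered with TERT, LT and ST, with cytotoxicity read by fluorescence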
# BJ [8] = test: BJ-TERT fibroblast viability loss – cell-based, RAS-independent, luminescence, dose response (AID 1933); format: functional; settings: Homo sapiens
# BJ [9] = test: cells; format: functional, cell-based; settings: Homo sapiens
# [10] = DRD fibroblast viability loss – cell-based, non-viral oncogenic, luminescence, dose response (AID 1934); format: functional; settings: Homo sapiens
# BJ [11] = test: BJ-TERT-LT-ST fibroblast viability loss – cell-based, RAS-independent, luminescence, dose response (AID 1935); format: functional; settings: Homo sapiens;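 also: BJ fibroblasts immortalized with TERT plus LT and ST oncogenes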
# cells = format: functional, cell-based; settings: HEK-CNG
# [12] = molecular target: Luciferin 4-monooxygenase (Photinus pyralis, UniProt P08659); test: inhibition of purified Photinus pyralis luciferase – biochemical, luminescence, dose response (AID 1891)
# [13] = Luminescence Cell-Based Dose Confirmation HTS to Identify Inhibitors of Platelet Dense Granule Release. [Related pubchem assays: 1663 (Primary HTS), 1678 (Summary of Project)]; format: functional
# Galanin receptor type 3 = molecular target: T1, Galanin receptor type 3 (Homo sapiens, UniProt O60755); test: Fluorescence-based cell-based primary high throughput dose response assay to identify antagonists of the Galanin Receptor 3 (GalR3).; format: functional
# T1 sequence (O60755 whole entry): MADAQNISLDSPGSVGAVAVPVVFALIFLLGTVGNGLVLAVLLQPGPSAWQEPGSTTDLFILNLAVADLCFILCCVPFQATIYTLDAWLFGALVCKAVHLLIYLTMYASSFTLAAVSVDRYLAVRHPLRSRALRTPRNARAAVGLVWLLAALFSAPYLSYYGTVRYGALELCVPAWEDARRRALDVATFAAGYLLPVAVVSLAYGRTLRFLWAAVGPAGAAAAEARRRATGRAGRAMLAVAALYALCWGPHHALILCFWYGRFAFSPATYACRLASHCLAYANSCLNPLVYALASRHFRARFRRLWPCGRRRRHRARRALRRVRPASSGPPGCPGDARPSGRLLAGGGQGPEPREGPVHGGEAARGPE
# INS1 = test: INS-1E survival protection against cytokine death – cell-based, luminescence, retest, dose response (AID 449756); format: functional; settings: Rattus norvegicus;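 also: cell death triggered by IL-1 beta plus TNF-alpha plus IFN-gamma mixture; protective hits raise ATP signal compared with cytokine alone wells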
# [14] = molecular target: T2, DNA repair protein RAD52 homolog (Homo sapiens, UniProt P43351); format: functional, biochemical
# T2 sequence (P43351 whole entry): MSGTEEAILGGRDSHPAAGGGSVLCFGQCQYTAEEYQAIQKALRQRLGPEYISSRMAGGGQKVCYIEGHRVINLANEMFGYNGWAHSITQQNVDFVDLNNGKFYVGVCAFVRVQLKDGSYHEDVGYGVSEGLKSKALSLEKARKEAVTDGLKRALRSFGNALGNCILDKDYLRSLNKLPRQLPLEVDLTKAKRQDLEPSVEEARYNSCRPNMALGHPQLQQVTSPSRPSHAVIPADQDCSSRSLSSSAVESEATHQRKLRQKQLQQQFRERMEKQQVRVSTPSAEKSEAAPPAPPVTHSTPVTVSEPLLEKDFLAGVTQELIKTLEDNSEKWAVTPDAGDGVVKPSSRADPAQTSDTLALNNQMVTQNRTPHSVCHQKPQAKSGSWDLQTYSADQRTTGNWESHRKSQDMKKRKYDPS
# [15] = molecular target: T3, DNA repair and recombination protein RAD54-like (Homo sapiens, UniProt Q92698); test: RAD54 Holliday junction migration blockers – biochemical, fluorescence, cherry-picked samples, dose series, confirmation (AID 651657); format: functional
# T3 sequence (Q92698 whole entry): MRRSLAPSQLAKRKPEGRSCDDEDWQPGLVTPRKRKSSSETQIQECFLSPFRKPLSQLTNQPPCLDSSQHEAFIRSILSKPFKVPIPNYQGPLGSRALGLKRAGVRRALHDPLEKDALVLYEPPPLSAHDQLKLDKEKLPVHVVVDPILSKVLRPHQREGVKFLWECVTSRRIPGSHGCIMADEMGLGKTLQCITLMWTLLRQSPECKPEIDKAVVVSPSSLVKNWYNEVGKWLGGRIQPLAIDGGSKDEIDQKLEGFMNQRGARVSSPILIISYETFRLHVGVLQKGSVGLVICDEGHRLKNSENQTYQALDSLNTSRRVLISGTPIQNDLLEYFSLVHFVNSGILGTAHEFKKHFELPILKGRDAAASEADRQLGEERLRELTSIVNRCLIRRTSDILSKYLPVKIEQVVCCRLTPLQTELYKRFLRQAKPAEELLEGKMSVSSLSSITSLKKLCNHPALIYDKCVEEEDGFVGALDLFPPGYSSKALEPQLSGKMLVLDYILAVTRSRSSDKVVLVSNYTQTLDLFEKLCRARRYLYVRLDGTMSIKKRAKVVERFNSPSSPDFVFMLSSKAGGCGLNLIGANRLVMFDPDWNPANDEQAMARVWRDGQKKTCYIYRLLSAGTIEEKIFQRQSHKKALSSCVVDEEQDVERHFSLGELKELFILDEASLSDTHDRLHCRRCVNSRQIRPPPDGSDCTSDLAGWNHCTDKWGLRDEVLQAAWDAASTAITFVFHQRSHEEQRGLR
# Streptococcus = test: GAS UMAA2166 growth inhibition – luminescence, BacTiterGlo, counter-screen for streptokinase expression inhibitor project, dose response (AID 1915); format: functional, organism-based;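 also: potency for reduction of bacterial viability or growth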
# [16] = test system: Streptococcus sp. 'group A'; test: Streptococcus pyogenes SK(-)GAS viability under kanamycin – luminescence, BacTiterGlo, confirmation, counter-screen for streptokinase expression inhibitor project, dose response (AID 1900); format: functional, organism-based
# [17] = molecular target: T4, Probable nicotinate-nucleotide adenylyltransferase (Staphylococcus aureus (strain N315), UniProt P65502); format: functional, Staphylococcus aureus subsp. aureus N315;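 as to IC50 Mean: confirmatory dose-response retesting of NadD inhibitor hits first found in an ultra-high-throughput screen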
# Phospholipase A2 = Phospholipase A2 (Homo sapiens, UniProt P04054); format: functional;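 also: confirmatory dose-response counterscreen on phospholipase A2, testing hits that came from an ultra-high-throughput screen for ATG4B inhibitors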
# [18] = molecular target: T4, Probable nicotinate-nucleotide adenylyltransferase; format: functional, Staphylococcus aureus subsp. aureus N315; settings: read-out: IC50_Mean
# Cysteine protease ATG4B = molecular target: T5, Cysteine protease ATG4B (Homo sapiens, UniProt Q9Y4P1); format: functional;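 also: Fluorescence-based dose-response confirmation assay measuring inhibition of ATG4B activity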
# T5 sequence (Q9Y4P1 whole entry): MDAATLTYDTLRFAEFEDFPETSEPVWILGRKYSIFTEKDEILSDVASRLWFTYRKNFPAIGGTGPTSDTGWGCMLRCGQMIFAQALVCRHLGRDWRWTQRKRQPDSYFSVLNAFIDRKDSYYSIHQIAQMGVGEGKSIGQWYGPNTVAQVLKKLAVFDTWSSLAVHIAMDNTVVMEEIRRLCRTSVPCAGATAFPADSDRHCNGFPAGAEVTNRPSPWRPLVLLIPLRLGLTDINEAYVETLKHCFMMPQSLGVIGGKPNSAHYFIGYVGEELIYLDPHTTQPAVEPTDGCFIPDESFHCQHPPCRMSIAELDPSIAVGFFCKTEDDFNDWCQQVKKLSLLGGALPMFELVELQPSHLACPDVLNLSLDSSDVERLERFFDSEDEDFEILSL
# [19] = viability of uninfected HEp-2 cells – cell-based, HTS, cytotoxicity control for RSV inhibitor project, dose response (AID 2410); format: functional; settings: human respiratory syncytial virus
# T4 sequence (P65502 whole entry): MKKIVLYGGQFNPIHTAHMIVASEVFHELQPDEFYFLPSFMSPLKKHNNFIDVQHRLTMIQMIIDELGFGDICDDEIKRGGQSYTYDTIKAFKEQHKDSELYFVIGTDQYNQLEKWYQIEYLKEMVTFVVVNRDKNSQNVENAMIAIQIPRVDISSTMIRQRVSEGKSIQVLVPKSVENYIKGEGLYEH
# Chain of Luciferin 4-monooxygenase (P08659 whole entry): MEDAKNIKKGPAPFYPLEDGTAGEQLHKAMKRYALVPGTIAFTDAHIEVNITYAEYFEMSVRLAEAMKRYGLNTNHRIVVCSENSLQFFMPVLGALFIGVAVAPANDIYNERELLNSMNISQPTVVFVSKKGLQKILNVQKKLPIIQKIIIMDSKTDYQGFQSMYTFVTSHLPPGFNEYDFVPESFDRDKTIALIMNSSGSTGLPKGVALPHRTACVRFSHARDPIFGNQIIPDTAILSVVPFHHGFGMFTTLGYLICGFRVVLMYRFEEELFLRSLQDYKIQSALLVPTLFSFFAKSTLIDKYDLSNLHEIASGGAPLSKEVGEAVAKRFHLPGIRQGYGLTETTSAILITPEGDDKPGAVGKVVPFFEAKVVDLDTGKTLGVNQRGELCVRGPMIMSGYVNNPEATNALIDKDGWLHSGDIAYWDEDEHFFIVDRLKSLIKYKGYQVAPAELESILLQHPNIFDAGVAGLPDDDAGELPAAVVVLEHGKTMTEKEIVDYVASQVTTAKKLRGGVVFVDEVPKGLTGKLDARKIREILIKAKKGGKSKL
# Chain of Phospholipase A2 (P04054 whole entry): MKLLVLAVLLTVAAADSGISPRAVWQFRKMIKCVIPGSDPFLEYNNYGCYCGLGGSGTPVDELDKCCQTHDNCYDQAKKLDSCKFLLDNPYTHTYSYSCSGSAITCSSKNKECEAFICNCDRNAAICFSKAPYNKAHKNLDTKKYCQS
smiles,measurement,setting,value
CCCCCCCCN1C(=O)[C@H](CC(=O)N2CCCCC2)C[C@@]2(C(=O)OCC)CCCC=C12,AC50,[1],13.9 µM (active)
same,AC50,[2],0.465 µM (active)
same,AC50,[3],37.2 µM (active)
same,AC50,[4],> 70 µM (inactive)
same,AC50,[5],8.73 µM (active)
C[C@@H]1C=CC(=O)O[C@@H]1c1ccc(Cl)cc1,IC50,[6],> 80 µM (inactive)
same,EC50,BJ [7],0.547 µM (active)
same,EC50,BJ [8],21.3 µM (active)
same,EC50,BJ [9],23.8 µM (active)
same,EC50,[10],5.84 µM (active)
same,EC50,BJ [11],16.7 µM (active)
CC1CC(=O)NN=C1c1ccc(NCCO)c([N+](=O)[O-])c1 (stereo not drawn),EC50,cells,> 29.9 µM (inactive)
same,EC50,[12],> 112 µM (not active)
same,EC50,[13],< 0.088 µM (active)
same,IC50,Galanin receptor type 3,0.367 µM (active)
O=C(COc1ccc(Cl)cc1)Nc1ccc(C(=O)NCc2cccnc2)cc1,EC50,BJ [7],25.6 µM (active)
same,EC50,BJ [8],> 150 µM (not active)
same,EC50,BJ [9],2.87 µM (active)
same,EC50,[10],> 150 µM (inconclusive)
same,AC50,INS1,< 0.195 µM (active)
same,EC50,BJ [11],18.8 µM (inconclusive)
Cc1cccn2c(=O)c3cc(C(=O)NCCN4CCOCC4)c(=N)n(CCCN4CCOCC4)c3nc12,AC50,[14],4.63 µM (active)
same,AC50,[15],8.19 µM (active)
CC(C)(C)C(=O)NC(=S)NNC(=O)c1ccc(Cl)cc1Cl,EC50,Streptococcus,5.5 µM (active)
same,EC50,cells,> 29.9 µM (inactive)
same,EC50,[16],1.88 µM (active)
same,IC50,Galanin receptor type 3,> 29.9 µM (inactive)
CCCc1cc(=O)[nH]c(SCC(=O)N2N=C(c3ccc(Cl)cc3)CC2c2ccco2)n1 (stereo not drawn),IC50,[17],9.52 µM (active)
same,IC50,Phospholipase A2,16.6 µM (active)
same,IC50,[18],52.9 µM (active)
same,IC50,Cysteine protease ATG4B,20.5 µM (inactive)
Cc1n[nH]c2c1C1(C(=O)N(Cc3ccc(Cl)cc3)c3ccccc31)C(C#N)=C(N)O2 (stereo not drawn),AC50,[2],39.6 µM (active)
same,AC50,[3],59.1 µM (active)
same,AC50,[4],55.2 µM (active)
same,AC50,[5],3.62 µM (active)
same,CC50,[19],25.1 µM (active)
COc1cccc(-c2cnc3c(NC(C)=O)cc(-c4cccc(C(=O)NCCN(C)C)c4)cn23)c1,AC50,[14],2.42 µM (active)
same,AC50,[15],26.7 µM (active)
